ChEMBL document CHEMBL1201862, “PubChem BioAssay data set” (2004)
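These data come from cells grown in 96-well plates and exposed to compound for 48 hours at five concentrations. Here, GI50 denotes the concentration required for 50% inhibition of growth.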 Calls of active or inactive are those of the source. Cut-off read from the data, not from the text of the source: active = GI50 up to about 1.1 µM and inactive = higher.

Assays:
Test in all cases: inhibition of tumour cell growth, NCI panel, 48 h
NCI/ADR-RES = test system: NCI/ADR-RES
KM12 = test system: KM12
SK-MEL-5 = test system: SK-MEL-5
COLO 205 = test system: COLO 205
OVCAR-5 = test system: OVCAR-5
SK-MEL-28 = test system: SK-MEL-28
HT-29 = test system: HT-29
MDA-N = test system: MDA-N
UO-31 = test system: UO-31
RXF 393 = test system: RXF 393
NCI-H23 = test system: NCI-H23
Hs-578T = test system: Hs-578T
A498 = test system: A498
MDA-MB-231 = test system: MDA-MB-231
T47D = test system: T47D
SF-539 = test system: SF-539
K562 = test system: K562
NCI-H460 = test system: NCI-H460
OVCAR-8 = test system: OVCAR-8
SR = test system: SR

Measured: GI50

CC1=NNC(=O)C1C(CC(=O)c1c[nH]c2ccccc12)C(=O)O (centres undefined)
inactive: NCI/ADR-RES > 100 µM | KM12 30.1 µM | SK-MEL-5 > 100 µM | COLO 205 64.7 µM | OVCAR-5 > 100 µM | SK-MEL-28 > 100 µM | HT-29 > 100 µM | MDA-N > 100 µM | UO-31 64.3 µM | RXF 393 > 100 µM | NCI-H23 > 100 µM | Hs-578T > 100 µM | A498 > 100 µM | MDA-MB-231 > 100 µM | T47D 76 µM | SF-539 > 100 µM | K562 36.1 µM | NCI-H460 > 100 µM | OVCAR-8 > 100 µM

Cc1nnc([C@@]2(C)CC[C@H]3[C@@H](CC=C4C[C@@H](O)CC[C@@]43C)[C@@H]2CC#N)o1
inactive: NCI/ADR-RES > 100 µM | KM12 > 100 µM | SK-MEL-5 > 100 µM | SR > 100 µM | COLO 205 > 100 µM | OVCAR-5 > 100 µM | HT-29 > 100 µM | MDA-N > 100 µM | UO-31 > 100 µM | RXF 393 > 100 µM | NCI-H23 > 100 µM | Hs-578T 11.6 µM | A498 > 100 µM | MDA-MB-231 > 100 µM | SF-539 > 100 µM | K562 > 100 µM | OVCAR-8 > 100 µM

CCOC(=O)/C=C(/C(=O)OCC)n1ccc(N)nc1=O
inactive: NCI/ADR-RES > 100 µM | KM12 > 100 µM | SK-MEL-5 > 100 µM | SR 89.1 µM | COLO 205 66.1 µM | OVCAR-5 47.9 µM | SK-MEL-28 > 100 µM | HT-29 62.1 µM | MDA-N > 100 µM | UO-31 > 100 µM | NCI-H23 > 100 µM | Hs-578T > 100 µM | MDA-MB-231 > 100 µM | T47D > 100 µM | SF-539 > 100 µM | K562 > 100 µM | NCI-H460 > 100 µM | OVCAR-8 > 100 µM

COc1ccc(CC2c3cc(OC)c(OC)cc3CC[N+]2(C)C)cc1OC (centres undefined)
inactive: NCI/ADR-RES > 100 µM | KM12 > 100 µM | SK-MEL-5 > 100 µM | COLO 205 > 100 µM | OVCAR-5 > 100 µM | SK-MEL-28 > 100 µM | HT-29 > 100 µM | MDA-N > 100 µM | UO-31 > 100 µM | NCI-H23 > 100 µM | Hs-578T > 100 µM | A498 > 100 µM | MDA-MB-231 > 100 µM | T47D > 100 µM | SF-539 > 100 µM | K562 > 100 µM | NCI-H460 > 100 µM | OVCAR-8 > 100 µM

C=CCOCn1cc(C)c(=O)[nH]c1=O
inactive: KM12 > 100 µM | SK-MEL-5 > 100 µM | SR > 100 µM | COLO 205 > 100 µM | SK-MEL-28 > 100 µM | HT-29 > 100 µM | MDA-N > 100 µM | UO-31 > 100 µM | NCI-H23 > 100 µM | Hs-578T > 100 µM | A498 > 100 µM | MDA-MB-231 > 100 µM | T47D > 100 µM | SF-539 > 100 µM | K562 > 100 µM | NCI-H460 > 100 µM | OVCAR-8 > 100 µM

O=C(NC1=NC2C=CC([N+](=O)[O-])=CC2S1)C(=O)Nn1c(S)nc2ccccc2c1=O (centres undefined)
inactive: NCI/ADR-RES > 100 µM | KM12 > 100 µM | SK-MEL-5 88.1 µM | OVCAR-5 > 100 µM | SK-MEL-28 > 100 µM | HT-29 > 100 µM | MDA-N > 100 µM | UO-31 27.7 µM | RXF 393 50.6 µM | NCI-H23 40.7 µM | Hs-578T 39.4 µM | A498 30.4 µM | MDA-MB-231 63.8 µM | T47D 80.5 µM | SF-539 > 100 µM | K562 64.1 µM | NCI-H460 80.5 µM | OVCAR-8 87.1 µM

CC1=NN(c2ccccc2)C(=O)/C1=C1\SC(c2ccccc2)(c2ccccc2)c2ccccc21
inactive: NCI/ADR-RES > 100 µM | KM12 > 100 µM | SK-MEL-5 > 100 µM | COLO 205 > 100 µM | OVCAR-5 > 100 µM | SK-MEL-28 > 100 µM | HT-29 67.9 µM | MDA-N > 100 µM | UO-31 > 100 µM | RXF 393 > 100 µM | NCI-H23 > 100 µM | Hs-578T > 100 µM | A498 > 100 µM | MDA-MB-231 > 100 µM | T47D > 100 µM | SF-539 > 100 µM | K562 > 100 µM | NCI-H460 > 100 µM | OVCAR-8 > 100 µM

CC(C)=NN/C(=N\c1ccc(Cl)cc1)NS(=O)(=O)c1cc(Cl)c(Oc2ccc([N+](=O)[O-])cc2Cl)c(Cl)c1
inactive: NCI/ADR-RES > 100 µM | KM12 > 100 µM | SK-MEL-5 > 100 µM | COLO 205 > 100 µM | OVCAR-5 > 100 µM | SK-MEL-28 > 100 µM | HT-29 > 100 µM | MDA-N > 100 µM | UO-31 56.8 µM | NCI-H23 > 100 µM | Hs-578T 81.7 µM | MDA-MB-231 60.1 µM | T47D 22.2 µM | K562 53.6 µM | NCI-H460 > 100 µM | OVCAR-8 > 100 µM

O=c1cc(NNc2cccc(F)c2)[nH]c(=S)[nH]1
inactive: NCI/ADR-RES > 100 µM | KM12 96.8 µM | SK-MEL-5 > 100 µM | SR > 100 µM | COLO 205 77.1 µM | OVCAR-5 > 100 µM | SK-MEL-28 > 100 µM | HT-29 > 100 µM | MDA-N > 100 µM | UO-31 > 100 µM | Hs-578T > 100 µM | A498 > 100 µM | MDA-MB-231 > 100 µM | SF-539 > 100 µM | K562 61.4 µM | NCI-H460 > 100 µM | OVCAR-8 > 100 µM

COc1ccc(/C(C)=N/NC(=O)c2ccncc2)cc1OC
inactive: NCI/ADR-RES > 10 µM | KM12 > 10 µM | SK-MEL-5 > 10 µM | SR > 10 µM | COLO 205 > 10 µM | MDA-N > 10 µM | UO-31 9.08 µM | NCI-H23 > 10 µM | Hs-578T 7.05 µM | A498 > 10 µM | MDA-MB-231 > 10 µM | T47D > 10 µM | SF-539 > 10 µM | K562 > 10 µM | NCI-H460 > 10 µM

NC(=O)C1Cc2cc3c(cc21)OCO3 (centres undefined)
inactive: NCI/ADR-RES > 100 µM | KM12 > 100 µM | SK-MEL-5 > 100 µM | COLO 205 > 100 µM | OVCAR-5 > 100 µM | HT-29 > 100 µM | MDA-N > 100 µM | UO-31 > 100 µM | RXF 393 > 100 µM | NCI-H23 > 100 µM | Hs-578T > 100 µM | MDA-MB-231 > 100 µM | SF-539 > 100 µM | NCI-H460 > 100 µM | OVCAR-8 > 100 µM
